Results: PubChem BioAssay (NCI)
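Where inhibition never reached the appropriate level, the endpoint shown equals the highest concentration tested. Otherwise, values were interpolated linearly from a five-concentration, 48-hour dose response in 96-well plates. The concentration for 50% growth inhibition is given as GI50. TGI denotes the concentration required for complete inhibition of growth.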

Tests used:
Assay in all cases: inhibition of tumour cell growth, NCI panel, 48 h
[1] = test system: HS 578T breast
[2] = test system: K-562 leukemia
[3] = test system: OVCAR-8 ovarian
[4] = test system: RXF 393 renal
[5] = test system: NCI/ADR-RES ovarian
[6] = test system: HOP-92 NSCLC
[7] = test system: A498 renal
[8] = test system: SK-MEL-2 melanoma
[9] = test system: OVCAR-3 ovarian
[10] = test system: NCI-H460 lung
[11] = test system: HCC-2998 colon
[12] = test system: U251 CNS
[13] = test system: NCI-H226 lung
[14] = test system: M14 melanoma
[15] = test system: SF-268 CNS
[16] = test system: A549 NSCLC
[17] = test system: T-47D breast
[18] = test system: SK-OV-3 ovarian
[19] = test system: SK-MEL-28 melanoma
[20] = test system: ACHN renal
[21] = test system: MDA-MB-231 breast
[22] = test system: SR leukemia
[23] = test system: NCI-H23 lung
[24] = test system: IGROV1 ovarian
[25] = test system: CCRF-CEM leukemia
[26] = test system: RPMI-8226 leukemia
[27] = test system: DU-145 prostate
[28] = test system: 786-0 renal
[29] = test system: MCF7 breast
[30] = test system: TK-10 renal
[31] = test system: SW-620 colon
[32] = test system: HL-60(TB) leukemia
[33] = test system: MDA-MB-435
[34] = test system: SN12C renal
[35] = test system: OVCAR-4 ovarian
[36] = test system: SK-MEL-5 melanoma
[37] = test system: UACC-62 melanoma
[38] = test system: CAKI-1 renal
[39] = test system: OVCAR-5 ovarian
[40] = test system: COLO 205 colon
[41] = test system: KM12 colon
[42] = test system: UO-31 renal
[43] = test system: SNB-19 CNS
[44] = test system: LOX IMVI melanoma
[45] = test system: HCT-15 colon
[46] = test system: BT-549 breast
[47] = test system: MALME-3M melanoma
[48] = test system: NCI-H522 lung
[49] = test system: HOP-62 NSCLC
[50] = test system: SF-295 CNS
[51] = test system: MOLT-4 leukemia
[52] = test system: SNB-75 CNS
[53] = test system: HCT-116 colon
[54] = test system: SF-539 CNS
[55] = test system: PC-3 prostate
[56] = test system: HT29 colon

O=C(N=Nc1c(Cl)c(O)c2ccccc2c1O)C(=O)Nc1cccc(C(F)(F)F)c1
GI50 [1]: 2600 nM
TGI [1]: 8.6 µM
GI50 [2]: 3.94 µM
TGI [2]: 25.6 µM
GI50 [3]: 3.39 µM
TGI [3]: 13.6 µM
GI50 [4]: 5.81 µM
TGI [4]: 18.8 µM
GI50 [5]: 3.52 µM
TGI [5]: 17.7 µM
GI50 [6]: 1980 nM
TGI [6]: 15.6 µM
GI50 [7]: 9.13 µM
TGI [7]: 23.6 µM
GI50 [8]: 7.22 µM
TGI [8]: 20.5 µM
GI50 [9]: 1770 nM
TGI [9]: 4.64 µM
GI50 [10]: 3.3 µM
TGI [10]: 12.4 µM
GI50 [11]: 10.4 µM
TGI [11]: 22.9 µM
GI50 [12]: 3.05 µM
TGI [12]: 10.9 µM
GI50 [13]: 6.78 µM
TGI [13]: 28.2 µM
GI50 [14]: 1960 nM
TGI [14]: 4.1 µM
GI50 [15]: 3.37 µM
TGI [15]: 13 µM
GI50 [16]: 3.79 µM
TGI [16]: 16.7 µM
GI50 [17]: 4.92 µM
TGI [17]: 41.3 µM
GI50 [18]: 12.9 µM
TGI [18]: 26.7 µM
GI50 [19]: 10.4 µM
TGI [19]: 23.3 µM
GI50 [20]: 1920 nM
TGI [20]: 7.12 µM
GI50 [21]: 1600 nM
TGI [21]: 12.9 µM
GI50 [22]: 3.08 µM
TGI [22]: 17.1 µM
GI50 [23]: 2670 nM
TGI [23]: 10.2 µM
GI50 [24]: 2990 nM
TGI [24]: 21.4 µM
GI50 [25]: 2840 nM
TGI [25]: 8.77 µM
GI50 [26]: 3.49 µM
TGI [26]: 15.6 µM
GI50 [27]: 2730 nM
TGI [27]: 5.15 µM
GI50 [28]: 12.6 µM
TGI [28]: 25.1 µM
GI50 [29]: 1840 nM
TGI [29]: 4.31 µM
GI50 [30]: 14.2 µM
TGI [30]: 27.4 µM
GI50 [31]: 3.24 µM
TGI [31]: 15.6 µM
GI50 [32]: 3.35 µM
TGI [32]: 10.2 µM
GI50 [33]: 1890 nM
TGI [33]: 3.43 µM
GI50 [34]: 1770 nM
TGI [34]: 3.79 µM
GI50 [35]: 6.03 µM
TGI [35]: 26.9 µM
GI50 [36]: 1700 nM
TGI [36]: 3.98 µM
GI50 [37]: 3.33 µM
TGI [37]: 16.2 µM
GI50 [38]: 8.66 µM
TGI [38]: 23.7 µM
GI50 [39]: 14.7 µM
TGI [39]: 28.6 µM
GI50 [40]: 10.9 µM
TGI [40]: 24.6 µM
GI50 [41]: 5.45 µM
TGI [41]: 16.6 µM
GI50 [42]: 1530 nM
TGI [42]: 12.2 µM
GI50 [43]: 4.6 µM
TGI [43]: 17.6 µM
GI50 [44]: 1970 nM
TGI [44]: 5.09 µM
GI50 [45]: 3.21 µM
TGI [45]: 12 µM
GI50 [46]: 3.74 µM
TGI [46]: 12.5 µM
GI50 [47]: 3.12 µM
TGI [47]: 7.64 µM
GI50 [48]: 2820 nM
TGI [48]: 10.9 µM
GI50 [49]: 11.5 µM
TGI [49]: 24.7 µM
GI50 [50]: 6.05 µM
TGI [50]: 19.7 µM
GI50 [51]: 2930 nM
TGI [51]: 8.88 µM
GI50 [52]: 3.06 µM
TGI [52]: 15.5 µM
GI50 [53]: 1830 nM
TGI [53]: 3.88 µM
GI50 [54]: 3.51 µM
TGI [54]: 14.4 µM
GI50 [55]: 3000 nM
TGI [55]: 16.2 µM
GI50 [56]: 6.44 µM
TGI [56]: 28 µM
